# Data: patent EP4707280A1, “1,4-CINEOLE DERIVATIVE AND INTERMEDIATE THEREOF, HERBICIDE CONTAINING SAID DERIVATIVE AS ACTIVE INGREDIENT, METHOD FOR USING HERBICIDE, AND METHOD FOR PREPARING AGROCHEMICAL COMPOSITION” (HOKKO CHEMICAL INDUSTRY CO., LTD., priority 2023, dated 2024)
# How the values were obtained:
# Assay type in all cases: in vivo
# Lindernia pyxidaria = test: Test Example 6: herbicidal effect test by application during growth period of paddy rice (low dose); conditions: 7.5 g per 10 ares, applied seven days after sowing, flooded pots, 14 days after application, read-out: weed inhibition rate
# Method in brief: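 Emulsifiable concentrate, water-diluted, dropped onto flooded paddy pots 7 days post-sowing at 7.5 g active ingredient/10 a. Greenhouse-grown weeds; percent inhibition scored at day 14 after treatment.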
# Amaranthus viridis = test: Test Example 8: herbicidal effect test by stem and leaf treatment in upland field (low dose); conditions: 7.5 g per 10 ares, sprayed seven days after sowing, upland soil, 14 days after application, read-out: weed inhibition rate
# Method in brief: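 Post-emergence spray, 7 d after sowing: EC diluted in water, 100 L/10 a, 7.5 g a.i./10 a. Read-out: inhibition rate (%) at 14 d; n=2 per concentration.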
# Chenopodium album = test: Test Example 7: herbicidal effect test by soil application in upland field (low dose); conditions: 7.5 g per 10 ares, sprayed one day after sowing, 14 days after application, read-out: weed inhibition rate
# Method in brief: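 Upland alluvial loam pots, seeds mixed into top 1 cm of soil; one day after sowing, diluted emulsifiable concentrate sprayed on soil at 100 L/10 a, giving 7.5 g active ingredient/10 a. Duplicate pots; weed inhibition rate (%) scored 14 days after application.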
Compound,inhibition at 75 g/ha (Lindernia pyxidaria),inhibition at 75 g/ha (Amaranthus viridis),inhibition at 75 g/ha (Chenopodium album)
"CC(C)[C@]12C[C@@H](OCc3ccccc3F)[C@](C)(CC1OCC1CC1)O2 (mixture of isomers) [1-921, (1S,2R,4R,SR)-5-(cyclopropylmethoxy)-2-[(2-fluorophenyl)methoxy]-1-methyl-4-isopropyl-7-oxabicyclo[2.2.1]heptane]",≥ 80%,≥ 80%,≥ 80%
"Cc1ccccc1CO[C@@H]1C[C@]2(C(C)C)O[C@@]1(C)C[C@@H]2F [1-2, (1R,2S,4S,5R)-2-fluoro-1-isopropyl-4-methyl-5-((2-methylbenzyl)oxy)-7-oxabicyclo[2.2.1]heptane]",–,≥ 80%,–
"CC(C)[C@]12C[C@@H](OCc3c(F)cccc3F)[C@](C)(C[C@@H]1F)O2 [1-7, (1S,2R,4R,5S)-2-((2,6-difluorobenzyl)oxy)-5-fluoro-4-isopropyl-1-methyl-7-oxabicyclo[2.2.1]heptane]",–,–,≥ 80%
"C=CCO[C@@H]1C[C@]2(C)O[C@@]1(C(C)C)C[C@H]2OCc1ccccc1F [1-930, (1S,2R,4R,5R)-2-[(2-fluorophenyl)methoxy]-1-methyl-4-isopropyl-5-prop-2-enoxy-7-oxabicyclo[2.2.1]heptane]",≥ 80%,≥ 80%,≥ 80%
"C#CCO[C@@H]1C[C@]2(C)O[C@@]1(C(C)C)C[C@H]2OCc1ccccc1F [1-931, (1S,2R,4R,5R)-2-[(2-fluorophenyl)methoxy]-1-methyl-4-isopropyl-5-prop-2-ynoxy-7-oxabicyclo[2.2.1]heptane]",≥ 80%,≥ 80%,–
"CC(C)[C@]12C[C@@H](OCc3c(F)cccc3F)[C@](C)(CC1=O)O2 [2-20, (1R,4S,5R)-5-((2,6-difluorobenzyl)oxy)-1-isopropyl-4-methyl-7-oxabicyclo[2.2.1]heptan-2-one]",≥ 80%,–,–
"C=C1C[C@]2(C)O[C@@]1(C(C)C)C[C@H]2OCc1ccccc1C [2-72, (1R,4S,5R)-1-isopropyl-4-methyl-5-((2-methylbenzyl)oxy)-2-methylene-7-oxabicyclo[2.2.1]heptane]",–,–,≥ 80%
"C=C1C[C@]2(C)O[C@@]1(C(C)C)C[C@H]2OCc1ccccc1F [2-88, (1R,4S,5R)-5-((2-fluorobenzyl)oxy)-1-isopropyl-4-methyl-2-methylene-7-oxabicyclo[2.2.1]heptane]",–,–,≥ 80%
